Experiment [1] deals with dysfunctional lymphatic vessels. The experiment is described as follows: KATP channel inhibitor / L-type calcium channel agonist on diseased mouse tissue sample. The settings on record: single agent, FIG. 20. The protocol: Glibendamide was then applied to a disease mouse tissue sample. […] The combination of glibenclamide and BayK8644 was then evaluated in a diseased mouse tissue sample. […] BayK8644, along with BayR5417 and FPL64176, are exemplary L-type calcium channel agonists.

The next experiment deals with mouse popliteal vessel. Briefly: Contractile function of isolated lymphatic vessels with impaired contractility. From the text: FIG. 9A, FIG. 9B, FIG. 9C and FIG. 9D depict the effect of norepinephrine (NE) on vessels with impaired contractility. […] FIG. 9C depicts that NE enhanced contractions in 13/14 vessels with impaired contractions and (FIG. 9D) induced >3.5-fold increase in FREQ (contraction frequency) and 2-fold increase in AMP (contraction amplitude) in a subset 8 vessels that had control contractions.
Data has been obtained to support the contention that NE has the potential not only to relieve valve lock (FIG. 3C) but also to enhance pump function. […] It is presumed that NE works by enhancing inotropy under these conditions and that it may be particularly effective in vessels fatigued or in partial pump failure from chronic pressure overload.

Experiment [2] has as its system human mesenteric lymphatic vessels. The experiment is described as follows: Isolated pressurized human mesenteric lymphatic vessel segments, response to NE. To be noted: 33 nM NE. The protocol: Recently, 1-, 2- and 3-valve segments of human mesenteric lymphatic vessels obtained following bariatric surgery were studied and their responses to Pout and/or Pin elevation and NE were tested. These are the first such measurements in isolated pressurized human lymphatics. […] Like rat/mouse vessels, the valves are biased to be open in the absence of a pressure gradient (arrowhead). Valve gating curves or tests for valve lock were unable to be performed because the vessels were too large to be studied on the microscope used with the pressure controller. However, it was encouraging to find that every response tested was similar to those of rat/mouse vessels.

For a further experiment, the system named is healthy lymphangion. The experiment is described as follows: Rescue of valve lock in isolated pressurized lymphangions under elevated pressure. Set-up: species or system mouse. An excerpt:
FIG. 1A and FIG. 1B depict single (FIG. 1A) and multiple (FIG. 1B) lymphangion preparations showing measurements of pressure, diameter and valve position. FIG. 1C and FIG. 1D depict 1-valve preparations used for valve closure (FIG. 1C) and back-leak (FIG. 1D) tests. Color coding applies to pressure, diameter & valve traces shown in all subsequent figures; blue=upstream. black=mid segment, red=downstream. Pin and Pout are controlled with a computer-based servo controller; PL is intraluminal pressure measured with a servo-null micropipette inserted through the wall; diameters are measured with computer-based edge detection^(15); valve positions are determined using densitometry windows as shown^(21,22,69,71).
Studies were made of single and multiple lymphangions from mice under hydrostatic conditions simulating those experienced in primary and secondary lymphedema. When a progressive rise in outflow pressure is imposed, simulating the pressure load on the vessel in a dependent extremity, the normal response of the vessel is a myogenic constriction to Pout elevation (arrow, described in detail in ref.^(71)) with continued pumping, such that internal pressure generation slightly exceeds Pout during systole of each contraction cycle (*); as a result the output valve opens briefly in systole, allowing partial ejection. […]

Experiment [3] concerns dysfunctional lymphatic vessels. Briefly: Phenylephrine on dysfunctional mouse lymphatic vessel. To be noted: mouse diseased tissue sample, FIG. 18.
[4] abbreviates: subset of 8 vessels that had control contractions.

Values joined by “and” are separate entries in the source; they are usually repeats but may differ in a detail not shown here. Equal entries are not always repeated. “Also recorded” adds a separate entry of the source.

With `COc1ccc(Cl)cc1C(=O)NCCc1ccc(S(=O)(=O)NC(=O)NC2CCCCC2)cc1` [glibenclamide], the “effect on contractions and pumping functions” value in experiment [1] is “improves/restores normal contractions and pumping functions”.
As to `NC[C@H](O)c1ccc(O)c(O)c1` [NE, norepinephrine], the “dose-dependent effect on frequency, tone and inotropy” value with mouse popliteal vessel (10^−8 to 10^−7M, FIG. 9) is “increases in frequency, tone and inotropy”. Further, the “effect on contractions and pumping of vessels with impaired contractility” value in the experiment with mouse popliteal vessel (fatigued or weakly contracting vessels) was “induce tone and spontaneous contractions; also recorded: induced robust contractions that persisted when pressure was elevated; also recorded: restores contraction and pumping; also recorded: induces spontaneous contractions; also recorded: consistent, large-amplitude contractions”. Besides, the “likelihood of having spontaneous contractions” value in the experiment on mouse popliteal vessel (preliminary analysis, FIG. 9C) is listed as “doubles”. Moreover, in the experiment with mouse popliteal vessel (setting [4]), the “increase in AMP (contraction amplitude)” value was found to be 2 fold; the “increase in FREQ (contraction frequency)” value is 3.5 fold and > 3.5 fold. Also, the “vessels with enhanced contractions” value in the experiment on mouse popliteal vessel (vessels with impaired contractions, knock-out mouse developing hindlimb edema) is 13/14. In addition, in experiment [2], the effect on tone result is listed as “increase in tone”, the “increase in AMP” value is on record as approximately 50% and the “increase in FREQ” value is approximately 2 fold. Further, in the experiment on healthy lymphangion (pressure remains elevated, dose that counteracts the loss of tone but does not fuse contractions), the “relief of valve lock” value is listed as “relieves valve lock; also recorded: reverses valve lock; also recorded: can be rescued”. The “working range of a lymphangion pumping against an output load” value with healthy lymphangion (prophylactic application, vessel not yet failed) is reported as “can be extended”.
For the compound `CNC[C@H](O)c1cccc(O)c1` [PE, phenylephrine], the “effect on contraction and pumping” value in experiment [3] is “restored contraction and pumping; also recorded: improves/restores normal contractions and pumping functions”.

These data come from patent US10918629B2, “Method for treating lymphedema” (The Curators of the University of Missouri, priority 2014, dated 2021).
